Measured values: patent US20170066759A1, “AROMATIC 5-MEMBERED HETEROCYCLIC DERIVATIVE HAVING TRPV4-INHIBITING ACTIVITY” (Shionogi & Co., Ltd., priority 2012, published 2017)
pIC50: −log10 of the molar value.

Experiments:
CYP2C9 = biological target: T1, CYP2C9 (Homo sapiens, UniProt P11712); experiment: Test Example 6: CYP inhibition test, tolbutamide methyl-hydroxylation (CYP2C9); format: in vitro ADME; conditions: pooled human hepatic microsome, 100 μmol/L tolbutamide
T1 construct: enzyme, pooled human hepatic microsome 0.2 mg protein/mL; from tissue; host or cells: pooled human liver microsomes
Procedure: (§1) Test Example 6 CYP Inhibition Test […] The reaction conditions were as follows: substrate, 0.5 μmol/L ethoxyresorufin (CYP1A2), 100 μmol/L tolbutamide (CYP2C9), 50 μmol/L S-mephenytoin (CYP2C19), 5 μmol/L dextromethorphan (CYP2D6), 1 μmol/L terfenedine (CYP3A4); reaction time, 15 minutes; reaction temperature, 37° C.; enzyme, pooled human hepatic microsome 0.2 mg protein/mL; concentration of the compound of the present invention, 1, 5, 10, 20 μmol/L (four points). Each five kinds of substrates, human hepatic microsome, and the compound of the present invention in 50 mmol/L Hepes buffer as a reaction solution were added to a 96-well plate at the composition as described above. NADPH, as a cofactor was added to initiate metabolism reactions as markers and, after the incubation at 37° C. for 15 minutes, a methanol/acetonitrile=1/1 (v/v) solution was added to stop the reaction. After the centrifugation at 3000 rpm for 15 minutes, resorufin (CYP1A2 metabolite) in the supernatant was quantified by a fluorescent multilabel counter and toltributamide hydroxide (CYP2[…] metabolite), mephenytoin 4' hydroxide (CYP2C19 metabolite), […], and terfenadine alcohol (CYP3A4 metabolite) were quantified by LC/MS/MS. Addition of only DMSO being a solvent dissolving the compound of the present invention to a reaction system was adopted as a control (100%). Remaining activity (%) was calculated at each concentration of the compound of the present invention added as the solution and IC50 was calculated by reverse presumption by a logistic model using a concentration and an inhibition rate.

CYP3A4 = biological target: T2, CYP3A4 (Homo sapiens, UniProt P08684); experiment: Test Example 6: CYP inhibition test, terfenedine hydroxylation (CYP3A4); format: in vitro ADME; conditions: pooled human hepatic microsome, 1 μmol/L terfenedine
T2 construct: enzyme, pooled human hepatic microsome 0.2 mg protein/mL; from tissue; host or cells: pooled human liver microsomes
Procedure: as §1

CYP1A2 = biological target: T3, CYP1A2 (Homo sapiens, UniProt P05177); experiment: Test Example 6: CYP inhibition test, 7-ethoxyresorufin O-deethylation (CYP1A2); format: in vitro ADME; conditions: pooled human hepatic microsome, 0.5 μmol/L ethoxyresorufin
T3 construct: enzyme, pooled human hepatic microsome 0.2 mg protein/mL; from tissue; host or cells: pooled human liver microsomes
T3 sequence (P05177 1-516): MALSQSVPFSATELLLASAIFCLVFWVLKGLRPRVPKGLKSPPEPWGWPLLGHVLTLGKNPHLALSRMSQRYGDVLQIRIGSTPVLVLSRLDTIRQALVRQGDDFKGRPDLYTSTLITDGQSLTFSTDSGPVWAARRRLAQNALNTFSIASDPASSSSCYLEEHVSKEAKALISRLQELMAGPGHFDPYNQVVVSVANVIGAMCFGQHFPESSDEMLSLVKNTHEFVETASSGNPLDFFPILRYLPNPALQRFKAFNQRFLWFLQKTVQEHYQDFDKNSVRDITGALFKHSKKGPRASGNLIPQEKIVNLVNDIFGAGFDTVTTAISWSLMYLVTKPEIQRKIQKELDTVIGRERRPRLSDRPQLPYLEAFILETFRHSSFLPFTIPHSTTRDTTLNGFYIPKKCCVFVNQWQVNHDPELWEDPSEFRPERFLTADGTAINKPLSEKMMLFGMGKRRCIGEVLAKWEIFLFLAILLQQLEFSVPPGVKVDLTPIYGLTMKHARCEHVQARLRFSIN
Procedure: as §1

CYP2C19 = biological target: T4, CYP2C19 (Homo sapiens, UniProt P33261); experiment: Test Example 6: CYP inhibition test, mephenytoin 4′-hydroxylation (CYP2C19); format: in vitro ADME; conditions: pooled human hepatic microsome, 50 μmol/L S-mephenytoin
T4 construct: enzyme, pooled human hepatic microsome 0.2 mg protein/mL; from tissue; host or cells: pooled human liver microsomes
Procedure: as §1

[1] = biological target: T5, human TRPV4 (hTRPV4/CHO cells) (Homo sapiens, UniProt Q9HBA0); experiment: Test Example 1: TRPV4 inhibitory activity (IC50 value), 4α-PDD stimulation, Fluo4 calcium fluorescence (FLIPR TETRA); format: cell-based; conditions: Test Example 1, 4α-PDD stimulation, read-out: Test 1 IC50
T5 construct: expressed in transfected cells; host or cells: CHO-K1

hERG (IKr) = biological target: T6, hERG (IKr) (Homo sapiens, UniProt Q12809); experiment: Test Example 10: hERG test (IKr, whole cell patch clamp); format: cell-based; conditions: HEK293 cells expressing hERG channel, pH 7.4, 1 μmol/L of the compound, read-out: hERG % inhibition of tail peak current (IKr)
T6 construct: expressed in transfected cells; host or cells: HEK293
Text: For the purpose of assessing risk of an electrocardiogram QT interval prolongation of a compound of the present invention, effects of the compound of the present invention on delayed rectifier K^+ current (IKr), which plays an important role in the ventricular repolarization process, was studied using HEK293 cells expressing human ether-a-go-go related gene (hERG) channel.
After a cell was retained at a membrane potential of −80 mV by whole cell patch clamp method using an automated patch clamp system (PatchXpress 7000A, Axon Instruments Inc.), IKr induced by depolarization pulse stimulation at +40 mV for 2 seconds and, further, repolarization pulse stimulation at −50 mV for 2 seconds was recorded. […] From the recording IKr, an absolute value of the tail peak current was measured based on the current value at the resting membrane potential using an analysis software (DataXpress ver. 1, Molecular Devices Corporation). Further, the % inhibition relative to the tail peak current before application of the compound of the present invention was calculated, and compared with the vehicle-applied group (0.1% dimethyl sulfoxide solution) to assess influence of the compound of the present invention on IKr. […]

T6 sequence (Q12809 whole entry): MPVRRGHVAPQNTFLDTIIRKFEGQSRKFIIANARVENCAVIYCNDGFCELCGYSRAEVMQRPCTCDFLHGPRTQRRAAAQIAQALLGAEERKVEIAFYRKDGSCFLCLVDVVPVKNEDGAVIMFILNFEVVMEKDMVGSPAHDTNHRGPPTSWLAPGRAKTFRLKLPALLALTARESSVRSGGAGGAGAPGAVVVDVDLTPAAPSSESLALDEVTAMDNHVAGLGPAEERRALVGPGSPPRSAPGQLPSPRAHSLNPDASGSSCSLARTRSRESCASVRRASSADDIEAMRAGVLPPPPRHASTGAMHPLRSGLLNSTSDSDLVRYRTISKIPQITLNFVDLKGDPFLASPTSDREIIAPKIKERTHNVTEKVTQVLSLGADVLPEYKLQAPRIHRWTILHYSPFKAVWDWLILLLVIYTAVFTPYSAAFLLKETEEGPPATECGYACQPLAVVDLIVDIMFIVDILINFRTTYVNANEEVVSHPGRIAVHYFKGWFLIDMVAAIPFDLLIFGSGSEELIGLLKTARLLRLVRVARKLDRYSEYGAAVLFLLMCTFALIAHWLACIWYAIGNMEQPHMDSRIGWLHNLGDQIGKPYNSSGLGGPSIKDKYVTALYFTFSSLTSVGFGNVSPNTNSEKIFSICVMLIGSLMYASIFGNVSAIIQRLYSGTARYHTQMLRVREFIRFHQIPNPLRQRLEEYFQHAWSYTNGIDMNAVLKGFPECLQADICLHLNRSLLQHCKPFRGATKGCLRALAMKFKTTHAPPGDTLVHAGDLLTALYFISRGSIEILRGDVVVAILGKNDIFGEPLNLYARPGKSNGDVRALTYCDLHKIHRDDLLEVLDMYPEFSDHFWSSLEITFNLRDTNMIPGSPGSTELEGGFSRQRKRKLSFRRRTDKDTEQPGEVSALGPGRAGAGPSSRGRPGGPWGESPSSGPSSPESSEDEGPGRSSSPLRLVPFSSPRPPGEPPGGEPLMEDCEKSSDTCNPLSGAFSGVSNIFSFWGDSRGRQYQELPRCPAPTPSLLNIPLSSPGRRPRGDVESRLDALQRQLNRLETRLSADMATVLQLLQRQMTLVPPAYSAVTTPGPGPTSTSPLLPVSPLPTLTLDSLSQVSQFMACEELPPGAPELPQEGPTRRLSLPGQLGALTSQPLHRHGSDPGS
T4 sequence (P33261 whole entry): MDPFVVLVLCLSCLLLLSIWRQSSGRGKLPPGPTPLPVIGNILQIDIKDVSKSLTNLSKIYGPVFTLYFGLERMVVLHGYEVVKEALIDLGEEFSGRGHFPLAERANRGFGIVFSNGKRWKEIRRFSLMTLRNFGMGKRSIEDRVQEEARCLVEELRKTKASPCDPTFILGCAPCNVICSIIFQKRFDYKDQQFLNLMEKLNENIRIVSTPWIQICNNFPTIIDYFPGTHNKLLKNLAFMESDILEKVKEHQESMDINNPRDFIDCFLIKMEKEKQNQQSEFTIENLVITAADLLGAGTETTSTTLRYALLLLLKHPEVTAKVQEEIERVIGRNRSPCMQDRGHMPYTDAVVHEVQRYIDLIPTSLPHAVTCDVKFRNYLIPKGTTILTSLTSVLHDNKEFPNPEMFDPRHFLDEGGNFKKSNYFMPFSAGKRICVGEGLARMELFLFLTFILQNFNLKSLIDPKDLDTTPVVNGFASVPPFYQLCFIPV
T2 sequence (P08684 whole entry): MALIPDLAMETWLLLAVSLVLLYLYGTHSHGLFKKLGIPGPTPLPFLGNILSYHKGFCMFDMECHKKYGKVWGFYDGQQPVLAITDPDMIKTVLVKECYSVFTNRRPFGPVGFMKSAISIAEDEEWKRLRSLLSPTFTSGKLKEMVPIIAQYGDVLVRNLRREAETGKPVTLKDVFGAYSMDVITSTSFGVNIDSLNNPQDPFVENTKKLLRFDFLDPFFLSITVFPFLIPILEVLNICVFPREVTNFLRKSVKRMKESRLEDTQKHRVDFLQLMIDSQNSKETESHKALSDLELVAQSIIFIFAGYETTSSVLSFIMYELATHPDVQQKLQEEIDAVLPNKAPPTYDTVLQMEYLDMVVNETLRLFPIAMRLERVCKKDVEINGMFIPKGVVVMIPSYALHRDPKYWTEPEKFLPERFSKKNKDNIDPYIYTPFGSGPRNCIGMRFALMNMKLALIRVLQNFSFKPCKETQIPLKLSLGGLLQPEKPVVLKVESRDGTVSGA
T1 sequence (P11712 whole entry): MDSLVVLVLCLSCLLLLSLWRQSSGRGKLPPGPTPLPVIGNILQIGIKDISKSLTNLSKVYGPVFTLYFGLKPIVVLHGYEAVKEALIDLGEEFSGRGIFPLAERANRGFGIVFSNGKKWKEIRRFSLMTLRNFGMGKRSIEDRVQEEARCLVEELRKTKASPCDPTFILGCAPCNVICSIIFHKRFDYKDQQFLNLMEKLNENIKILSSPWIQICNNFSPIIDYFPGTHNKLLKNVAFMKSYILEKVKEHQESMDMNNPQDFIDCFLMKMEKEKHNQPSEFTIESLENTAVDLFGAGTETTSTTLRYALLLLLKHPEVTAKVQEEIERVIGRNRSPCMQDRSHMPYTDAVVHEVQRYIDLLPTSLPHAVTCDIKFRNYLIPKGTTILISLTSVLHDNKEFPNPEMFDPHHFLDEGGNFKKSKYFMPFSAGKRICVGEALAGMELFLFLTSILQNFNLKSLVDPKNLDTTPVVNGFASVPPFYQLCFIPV
T5 sequence (Q9HBA0 whole entry): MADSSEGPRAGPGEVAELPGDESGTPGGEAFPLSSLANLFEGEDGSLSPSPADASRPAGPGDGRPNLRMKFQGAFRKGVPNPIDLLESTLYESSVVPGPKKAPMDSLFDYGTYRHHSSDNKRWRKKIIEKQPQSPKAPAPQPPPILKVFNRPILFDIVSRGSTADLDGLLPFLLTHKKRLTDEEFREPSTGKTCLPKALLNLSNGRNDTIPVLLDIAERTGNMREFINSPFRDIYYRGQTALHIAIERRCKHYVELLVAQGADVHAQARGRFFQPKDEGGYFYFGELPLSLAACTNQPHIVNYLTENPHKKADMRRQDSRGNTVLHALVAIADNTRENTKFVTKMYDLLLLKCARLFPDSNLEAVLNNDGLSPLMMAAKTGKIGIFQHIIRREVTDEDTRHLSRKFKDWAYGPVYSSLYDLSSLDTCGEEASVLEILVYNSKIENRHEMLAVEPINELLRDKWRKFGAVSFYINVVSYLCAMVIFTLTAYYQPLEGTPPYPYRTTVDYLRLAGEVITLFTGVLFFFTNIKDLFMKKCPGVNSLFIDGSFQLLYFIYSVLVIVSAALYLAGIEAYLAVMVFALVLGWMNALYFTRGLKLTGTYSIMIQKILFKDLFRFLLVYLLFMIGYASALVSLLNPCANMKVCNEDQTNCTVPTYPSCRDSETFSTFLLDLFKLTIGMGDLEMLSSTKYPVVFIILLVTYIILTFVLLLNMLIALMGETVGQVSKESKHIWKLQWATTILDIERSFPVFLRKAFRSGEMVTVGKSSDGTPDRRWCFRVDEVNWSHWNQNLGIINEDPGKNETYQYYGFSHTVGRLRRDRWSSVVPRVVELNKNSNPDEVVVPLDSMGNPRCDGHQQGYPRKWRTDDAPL

Row | SMILES | pIC50 (CYP2C9) | pIC50 (CYP3A4) | pIC50 (CYP1A2) | pIC50 (CYP2C19) | pIC50 [1] | inhibition at 10 min, 1 μmol/L (hERG (IKr)) [%]
1 | Cc1nc(C)c(-c2csc(NC(=O)Cc3ccc(S(C)(=O)=O)cc3)n2)s1 [Compound I-17] | < 4.70 | < 4.70 | < 4.70 | < 4.70 | – | –
2 | Cc1nc(C)c(-c2csc(NC(=O)C3CCC(F)(F)C3)n2)s1 (stereo not drawn) [Compound I-18] | – | – | – | – | 6.00 to 7.00 | 6.1
